Laboratory results: patent US9206177B2, “Substituted dimeric quinazoline-2,4-diones as FGF receptor agonists” (Sanofi, priority 2011, dated 2015)

System: human venous endothelial cells (HUVECs)
Test: In vitro angiogenesis model (pseudotubule length of HUVECs on matrigel/collagen)
Type: cell-based
Design: % activation with respect to FGF2 (in vitro): concentration or dose not given beside the values
Conditions: for EC50 / % activation with respect to FGF2 (in vitro): in vitro; for % activation with respect to FGF2 (in vitro): relative to FGF2
Method: In Vitro Angiogenesis Model
The products are tested for their ability to cause rearrangement of human venous endothelial cells (HUVECs) on matrigel (Becton dickinson 356230) diluted in collagen (rat tail collagen, type I: Becton dickinson 354236). After 24 hours, the cells are observed under a microscope with a ×4 objective and the length of the pseudotubules is measured by means of an image analyser (BIOCOM-logiciel Visiolab 2000).

SMILES | EC50 (Homo sapiens, HUVEC) | % activation with respect to FGF2 (in vitro) | active on the in vitro angiogenesis model (at a concentration of 10 nM) | EC50
Cc1c(-c2cccc(OCCOCCOCCOCCOc3cccc(-c4c(C)c(C(=O)c5ccc6[nH]c(=O)n(CC(=O)O)c(=O)c6c5)n5ccccc45)c3)c2)c2ccccn2c1C(=O)c1ccc2[nH]c(=O)n(CC(=O)O)c(=O)c2c1 [Compound 2, 2,2′-{oxybis[ethane-2,1-diyloxyethane-2,1-diyloxybenzene-3,1-diyl(2-methylindolizine-1,3-diyl)carbonyl(2,4-dioxo-1,4-dihydroquinazoline-6,3(2H)-diyl)]}diacetic acid] | < 1 nM | 44% |  | 
Cc1c(-c2ccc(OCCOCCOCCOc3ccc(-c4c(C)c(C(=O)c5ccc6[nH]c(=O)n(CC(=O)O)c(=O)c6c5)n5ccccc45)cc3)cc2)c2ccccn2c1C(=O)c1ccc2[nH]c(=O)n(CC(=O)O)c(=O)c2c1 [Compound 3, 2,2′-{ethane-1,2-diylbis[oxyethane-2,1-diyloxybenzene-4,1-diyl(2-methylindolizine-1,3-diyl)carbonyl(2,4-dioxo-1,4-dihydroquinazoline-6,3(2H)-diyl)]}diacetic acid] | < 1 nM | 74% | active | 
Cc1c(-c2ccc(OCC(=O)NCCCCNC(=O)COc3ccc(-c4c(C)c(C(=O)c5ccc6[nH]c(=O)n(CC(=O)O)c(=O)c6c5)n5ccccc45)cc3)cc2)c2ccccn2c1C(=O)c1ccc2[nH]c(=O)n(CC(=O)O)c(=O)c2c1 [Compound 5] |  | 30% |  | < 100 nM
Cc1c(-c2cccc(OCC(=O)NCCCCCCNC(=O)COc3cccc(-c4c(C)c(C(=O)c5ccc6[nH]c(=O)n(CC(=O)O)c(=O)c6c5)n5ccccc45)c3)c2)c2ccccn2c1C(=O)c1ccc2[nH]c(=O)n(CC(=O)O)c(=O)c2c1 [Compound 6] |  | 29% |  | < 100 nM
Cc1c(-c2cccc(OCC(=O)NCCCCNC(=O)COc3cccc(-c4c(C)c(C(=O)c5ccc6[nH]c(=O)n(CC(=O)O)c(=O)c6c5)n5ccccc45)c3)c2)c2ccccn2c1C(=O)c1ccc2[nH]c(=O)n(CC(=O)O)c(=O)c2c1 [Compound 7] |  | 28% |  | < 100 nM
Cc1c(-c2ccc(OCCCCCN(CCCCCOc3ccc(-c4c(C)c(C(=O)c5ccc6c(=O)n(CC(=O)O)c(=O)[nH]c6c5)n5ccccc45)cc3)CCOCCO)cc2)c2ccccn2c1C(=O)c1ccc2c(=O)n(CC(=O)O)c(=O)[nH]c2c1 [Compound 8, 2,2′-({[2-(2-hydroxyethoxy)ethyl]imino}bis[pentane-5,1-diyloxybenzene-4,1-diyl(2-methylindolizine-1,3-diyl)carbonyl(2,4-dioxo-1,4-dihydroquinazoline-7,3(2H)-diyl)])diacetic acid] | < 1 nM | 42% |  | 
CCN(CCCCCOc1ccc(-c2c(C)c(C(=O)c3ccc4c(=O)n(CC(=O)O)c(=O)[nH]c4c3)n3ccccc23)cc1)CCCCCOc1ccc(-c2c(C)c(C(=O)c3ccc4c(=O)n(CC(=O)O)c(=O)[nH]c4c3)n3ccccc23)cc1 [Compound 9, 2,2′-{(ethylimino)bis[pentane-5,1-diyloxybenzene-4,1-diyl(2-methylindolizine-1,3-diyl)carbonyl(2,4-dioxo-1,4-dihydroquinazoline-7,3(2H)-diyl)]}diacetic acid] | < 100 nM | 28% |  | 
Cc1c(-c2ccc(OCCCCCN(CCCCCOc3ccc(-c4c(C)c(C(=O)c5ccc6c(=O)n(CC(=O)O)c(=O)[nH]c6c5)n5ccccc45)cc3)CCN3CCOCC3)cc2)c2ccccn2c1C(=O)c1ccc2c(=O)n(CC(=O)O)c(=O)[nH]c2c1 [Compound 10, 2,2′-({[2-(morpholin-4-yl)ethyl]imino}bis[pentane-5,1-diyloxybenzene-4,1-diyl(2-methylindolizine-1,3-diyl)carbonyl(2,4-dioxo-1,4-dihydroquinazoline-7,3(2H)-diyl)])diacetic acid] | < 1 nM | 41% |  | 
